# Source: patent publication US9663464B2, “Carbazole derivatives acting on 5-HT7 receptor” (KOREA INSTITUTE OF SCIENCE AND TECHNOLOGY, priority 2015, dated 2017)
# Counter-ions that a name gives are not always drawn.
# How the values were obtained:
# 5-HT1E = 5-HT1E (Homo sapiens, UniProt P28566); test: 5-HT1E receptor inhibition (Table 1); type: binding
# Rats = test: Antagonism against migraine: leakage of fluorescent protein (FITC-BSA) from meningeal vessels; type: in vivo; details: for protein leakage vs reference value: 5 mg/kg to 20 mg/kg
# Protocol: It is known that inflammatory proteins leaked from meningeal vessels by 5-HT are implicated in causing migraine. The amount of the proteins leaked in the presence of the compound of Example 2.10 was measured and the preventive effect of the compound on migraine was assessed by a partial modification of the method described in the literature [Rachel A. Spokes, Vicki C. Middlefell, European Journal of Pharmacology (1995) 281, 75-79]. SB-269970, which is known as a 5-HT7 receptor antagonizing compound (J. Med. Chem. (2000) 43, 342-345), was used as a comparative compound. A negative control free of […] was prepared. The fluorescence intensity of the negative control was defined as a reference value. As a positive control, physiological saline was added instead of the compound of Example 2-10.
# Rats (350-450 g) were administered urethane (1.5 g/kg) intraperitoneally. 50 mg/kg of a fluorescent protein (FITC-BSA) was administered intravenously through a cannula introduced into the saphenous vein, and 1 μM […] was administered intravenously. SB-269970 and the compound of Example 2.10 were administered intraperitoneally. The cerebral lobes were separated and the meninges were drawn from each rat. The meninges were allowed to stand at 37° C. for 16 h in the presence of physiological saline at pH 11, followed by centrifugation. The supernatant was plated on plates. The fluorescence intensity was measured using a fluorescence leader (excitation wavelength 485 nm, […] wavelength 530 nm) and the meninges were weighed. The fluorescence intensity per mg of the meningeal proteins was calculated.
# [1] = molecular target: T1, human gene recombinant 5-HT7 receptor expressed in CHO cells (Homo sapiens, UniProt P34969); test: Binding affinity for the 5-HT7 serotonin receptor ([3H]LSD radioligand)
# T1 construct: expressed in transfected cells; host or cells: CHO cells (membrane preparation)
# Protocol: In this example, the human gene recombinant 5-HT7 receptor expressed in CHO cells was used. 1 nM [^3H]LSD, 5-HT7 receptor membrane (15 μg/well), a test drug, 10 mM MgCl2, 50 mM Tris-HCl buffer (pH 7.4) containing 0.1 mM EDTA, etc. were added to a vessel until the final volume reached 0.25 ml. The test drug was used at various concentrations. The mixture was cultured at 25° C. for 90 min. The culture was rapidly filtered through a Whatman GF/C glass fiber filter, which had been previously wetted with 0.3% polyethyleneimine using a Brandel harvester, to quench the reaction. The reaction mixture was washed with cold 50 mM Tris-HCl buffer. The filter was covered with MeltiLex, sealed in a sample bag, and dried in an oven. Counting was performed using MicroBeta (Wallac) and nonspecific binding was measured in the presence of […]. The K value of the test drug was obtained from nonlinear regression analysis (GraphPad Prism Program, San Diego, USA) of isotherms obtained by repeatedly performing the experiment on the drug at 10-11 stage concentrations in two test tubes (each twice).
# The % inhibition values of the inventive compounds having different Y structures at a concentration of 10 μM against the 5-HT7 serotonin receptor were measured. Further, the binding affinity (Ki) values of the inventive compounds having different Y structures at a concentration of 10 μM for the 5-HT7 serotonin receptor were measured.
# 5-HT2C = molecular target: T2, 5-HT2C (Homo sapiens, UniProt P28335); test: 5-HT2C receptor inhibition/binding (Tables 1-3)
# T2 sequence (P28335 33-458): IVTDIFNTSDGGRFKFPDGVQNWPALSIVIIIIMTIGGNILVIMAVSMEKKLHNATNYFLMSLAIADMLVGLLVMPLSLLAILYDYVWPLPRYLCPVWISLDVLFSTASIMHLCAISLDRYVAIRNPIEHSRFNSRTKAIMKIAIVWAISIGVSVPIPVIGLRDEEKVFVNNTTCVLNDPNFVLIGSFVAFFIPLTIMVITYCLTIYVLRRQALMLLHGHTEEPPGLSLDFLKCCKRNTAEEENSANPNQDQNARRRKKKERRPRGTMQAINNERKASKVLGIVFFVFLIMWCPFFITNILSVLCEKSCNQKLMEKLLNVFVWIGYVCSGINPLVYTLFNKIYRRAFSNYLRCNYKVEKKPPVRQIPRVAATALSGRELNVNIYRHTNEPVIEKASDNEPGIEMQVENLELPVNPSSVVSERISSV
# 5-HT6 = 5-HT6 (Homo sapiens, UniProt P50406); test: 5-HT6 receptor inhibition/binding (Tables 2-3)
# 5-HT1A = molecular target: T3, 5-HT1A (Homo sapiens, UniProt P08908); test: 5-HT1A receptor inhibition (Table 3); type: binding
# T3 sequence (P08908 1-422): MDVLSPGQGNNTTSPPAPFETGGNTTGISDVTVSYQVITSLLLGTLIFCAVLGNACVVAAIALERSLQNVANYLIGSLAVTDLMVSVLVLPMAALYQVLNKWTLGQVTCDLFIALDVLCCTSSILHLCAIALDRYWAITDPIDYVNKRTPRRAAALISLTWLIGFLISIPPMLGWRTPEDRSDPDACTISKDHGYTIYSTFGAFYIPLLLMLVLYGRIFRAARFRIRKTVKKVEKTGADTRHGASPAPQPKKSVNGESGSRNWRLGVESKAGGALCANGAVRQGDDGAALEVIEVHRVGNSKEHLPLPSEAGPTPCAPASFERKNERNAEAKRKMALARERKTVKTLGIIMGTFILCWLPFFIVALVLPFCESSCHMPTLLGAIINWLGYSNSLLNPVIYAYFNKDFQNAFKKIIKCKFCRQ
# 5-HT6, sequence (P50406 whole entry, species assumed): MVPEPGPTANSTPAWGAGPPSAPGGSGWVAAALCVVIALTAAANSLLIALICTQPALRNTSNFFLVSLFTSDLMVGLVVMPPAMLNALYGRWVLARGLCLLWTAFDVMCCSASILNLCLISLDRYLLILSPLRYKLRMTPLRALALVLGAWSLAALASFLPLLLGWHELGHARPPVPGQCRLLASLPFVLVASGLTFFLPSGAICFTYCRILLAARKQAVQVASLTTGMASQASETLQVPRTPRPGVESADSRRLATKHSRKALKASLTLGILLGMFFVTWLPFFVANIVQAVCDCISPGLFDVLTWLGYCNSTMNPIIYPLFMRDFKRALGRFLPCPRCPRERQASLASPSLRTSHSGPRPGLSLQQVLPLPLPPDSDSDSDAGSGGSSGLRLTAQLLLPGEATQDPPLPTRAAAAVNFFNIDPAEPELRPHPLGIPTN
# T1 sequence (P34969 whole entry): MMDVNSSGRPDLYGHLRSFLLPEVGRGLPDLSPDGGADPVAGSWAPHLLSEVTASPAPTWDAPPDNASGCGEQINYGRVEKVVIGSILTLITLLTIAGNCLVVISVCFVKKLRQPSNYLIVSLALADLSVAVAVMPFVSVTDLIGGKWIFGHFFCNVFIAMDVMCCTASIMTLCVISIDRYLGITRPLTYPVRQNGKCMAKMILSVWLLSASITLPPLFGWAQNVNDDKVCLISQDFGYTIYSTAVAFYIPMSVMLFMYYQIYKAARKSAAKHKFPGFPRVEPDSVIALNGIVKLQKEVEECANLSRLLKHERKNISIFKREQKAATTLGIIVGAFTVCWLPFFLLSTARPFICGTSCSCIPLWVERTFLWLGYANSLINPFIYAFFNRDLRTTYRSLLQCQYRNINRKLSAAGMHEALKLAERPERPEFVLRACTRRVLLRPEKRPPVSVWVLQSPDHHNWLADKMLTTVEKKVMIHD
# 5-HT1E, sequence (P28566 whole entry, species assumed): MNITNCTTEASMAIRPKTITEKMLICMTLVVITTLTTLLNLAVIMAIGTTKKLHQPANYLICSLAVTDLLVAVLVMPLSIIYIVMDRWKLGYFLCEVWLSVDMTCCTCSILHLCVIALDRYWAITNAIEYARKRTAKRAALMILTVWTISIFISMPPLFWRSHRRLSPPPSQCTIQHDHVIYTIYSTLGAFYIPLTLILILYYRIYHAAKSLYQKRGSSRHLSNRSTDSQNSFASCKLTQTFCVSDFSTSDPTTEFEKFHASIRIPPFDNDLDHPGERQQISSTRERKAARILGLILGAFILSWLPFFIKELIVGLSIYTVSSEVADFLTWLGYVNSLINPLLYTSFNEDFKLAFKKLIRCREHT
Compound,inhibition at 10 µM (5-HT1E) [%],inhibition at 10 µM [1] [%],Ki (5-HT2C) [µM],inhibition at 10 µM (5-HT2C) [%],inhibition at 10 µM (5-HT6) [%],Ki [1] [µM],inhibition at 10 µM (5-HT1A) [%],protein leakage vs reference value (Rats),Ki (5-HT6) [µM],"amount of the proteins leaked (meningeal fluorescence intensity) vs reference value (Rats; intraperitoneal, 3 mg/kg)","amount of the proteins leaked (meningeal fluorescence intensity) (Rats; intraperitoneal, 10 mg/kg)","amount of the proteins leaked (meningeal fluorescence intensity) vs reference value (Rats; intraperitoneal, 30 mg/kg)"
"CC1CCN(CCCCCC(=O)n2c3ccccc3c3ccccc32)CC1 [Example 2.4, 1-(9H-carbazol-9-yl)-6-(4-methylpiperidin-1-yl)hexan-1-one]",-11.6,94.2,0.878,78.5,–,–,–,suppressed to a level close to the reference value,–,–,–,–
"O=C(CCCCCN1CCC(c2ccccc2)CC1)n1c2ccccc2c2ccccc21 [Example 2.9, 1-(9H-carbazol-9-yl)-6-(4-phenylpiperidin-1-yl)hexan-1-one hydrochloride]",–,99.8,0.758,55.3,92.2,0.157,–,suppressed to a level close to the reference value,0.373,–,–,–
"O=C(CCCCCN1CCC(Cc2ccccc2)CC1)n1c2ccccc2c2ccccc21 [Example 2.10, 6-(4-Benzylpiperidin-1-yl)-1-(9H-carbazol-9-yl)hexan-1-one hydrochloride]",–,103,0.683,70.4,91.9,0.252,–,–,0.354,effectively suppressed to a level close to the reference value,–,–
"O=C(CCCCCN1CCN(c2noc3ccccc23)CC1)n1c2ccccc2c2ccccc21 [Example 2.14, 6-(4-Benzo[d]isoxazol-3-yl)piperazin-1-yl)-1-(9H-carbazol-9-yl)hexan-1-one hydrochloride]",–,94.1,–,63.7,81.3,0.073,80.5,suppressed to a level close to the reference value,–,–,–,–
"COc1ccccc1N1CCN(CCCCC(=O)n2c3ccccc3c3ccccc32)CC1 [Example 2.31, 1-(9H-carbazol-9-yl)-5-(4-(2-methoxyphenyl)piperazin-1-yl)pentan-1-one hydrochloride]",–,99.6,–,62.6,44.4,0.03,103,suppressed to a level close to the reference value,–,–,–,–
"CC1CCN(CC[C@H]2CCCN2S(=O)(=O)c2cccc(O)c2)CC1 [SB-269970, reference compound]",–,–,–,–,–,–,–,–,–,–,reduced the amount of the proteins leaked,not lowered down to the reference value

# Further lines, with some results ahead:
inhibition at 10 µM (5-HT1E) [%],inhibition at 10 µM [1] [%],Ki (5-HT2C) [µM],inhibition at 10 µM (5-HT2C) [%],inhibition at 10 µM (5-HT6) [%],Ki [1] [µM],inhibition at 10 µM (5-HT1A) [%],Compound,protein leakage vs reference value (Rats),Ki (5-HT6) [µM],"amount of the proteins leaked (meningeal fluorescence intensity) vs reference value (Rats; intraperitoneal, 3 mg/kg)","amount of the proteins leaked (meningeal fluorescence intensity) (Rats; intraperitoneal, 10 mg/kg)","amount of the proteins leaked (meningeal fluorescence intensity) vs reference value (Rats; intraperitoneal, 30 mg/kg)"
–,100,–,73.5,85.3,0.038,94.2,"O=C(CCCCCN1CCN(c2ccccc2O)CC1)n1c2ccccc2c2ccccc21 [Example 2.15, 1-(9H-carbazol-9-yl)-6-(4-(2-hydroxyphenyl)piperazin-1-yl)hexan-1-one]",suppressed to a level close to the reference value,–,–,–,–
–,95.8,–,–,77.8,0.055,103,"Oc1ccccc1N1CCN(CCCCn2c3ccccc3c3ccccc32)CC1 [Example 2.55, 2-(4-(4-(9H-carbazol-9-yl)butyl)piperazin-1-yl)phenol]",suppressed to a level close to the reference value,–,–,–,–
